4 compounds from ChEMBL document CHEMBL1201862, “PubChem BioAssay data set” (2004) can be followed below.

Active and inactive are the calls of the source. Some results are limits rather than exact numbers.

A short description of assay [1]: cells.
The target of assay [2] is Major prion protein (Homo sapiens, UniProt P04156). In kind it is functional, cell-based.
In assay [3] the test system is BJ. In words: cells. The class given is functional, cell-based. The note with it: Homo sapiens.
The subject of assay [4] is BJ. In words: BJ-TERT-LT-ST fibroblast viability loss – cell-based, RAS-independent, luminescence, dose response (AID 1935).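 Note: BJ fibroblasts immortalized with TERT plus LT and ST oncogenes.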 In kind it is functional. The note with it: Homo sapiens.
Assay [5] in a line: general cell-killing toxicity readout – plate reader, dry powder samples, cytotoxicity control for PAX8 inhibitor project, dose response (AID 743021). The class given is functional, cell-based.
Assay [6] can be described thus: NIH3T3 cell viability loss – ATP luminescence, mouse fibroblasts, counter-screen, dose response (AID 2010).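 Note: cells exposed to compound for about 90 hours before reading.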 In kind it is functional, cell-based. For orientation: Counterscreens check selectivity or assay interference.
Assay [7] deals with T1, Replicative DNA helicase DnaB (Mycobacterium tuberculosis, UniProt P9WMR3).
T1 sequence (P9WMR3 whole entry): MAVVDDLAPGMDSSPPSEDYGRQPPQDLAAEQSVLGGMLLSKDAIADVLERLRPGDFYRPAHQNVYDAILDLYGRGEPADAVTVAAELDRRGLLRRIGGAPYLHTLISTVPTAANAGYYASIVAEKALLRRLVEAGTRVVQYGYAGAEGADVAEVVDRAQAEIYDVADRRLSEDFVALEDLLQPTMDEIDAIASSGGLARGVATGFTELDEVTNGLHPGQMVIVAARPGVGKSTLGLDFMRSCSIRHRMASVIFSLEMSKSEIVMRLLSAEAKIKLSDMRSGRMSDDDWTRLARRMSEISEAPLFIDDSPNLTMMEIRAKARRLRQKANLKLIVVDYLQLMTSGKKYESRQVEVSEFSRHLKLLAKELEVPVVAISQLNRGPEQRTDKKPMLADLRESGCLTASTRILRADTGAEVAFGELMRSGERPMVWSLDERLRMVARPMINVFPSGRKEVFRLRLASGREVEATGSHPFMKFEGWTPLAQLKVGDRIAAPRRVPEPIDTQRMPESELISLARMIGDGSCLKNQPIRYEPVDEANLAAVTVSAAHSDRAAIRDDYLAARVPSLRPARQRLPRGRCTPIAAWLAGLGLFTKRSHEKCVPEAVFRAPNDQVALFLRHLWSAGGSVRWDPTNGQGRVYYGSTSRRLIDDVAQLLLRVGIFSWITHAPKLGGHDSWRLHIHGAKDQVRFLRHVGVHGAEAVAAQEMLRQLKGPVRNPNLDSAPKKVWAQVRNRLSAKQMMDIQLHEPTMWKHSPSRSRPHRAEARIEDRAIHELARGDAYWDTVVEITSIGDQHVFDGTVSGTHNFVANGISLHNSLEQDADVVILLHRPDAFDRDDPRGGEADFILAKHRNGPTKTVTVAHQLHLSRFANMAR
In words: DnaB intein splicing inhibitors, dose response, biochemical, cell-free fluorescence (AID 449749). The class given is functional.

The nature of assay [8]: Trypanosoma cruzi growth suppression in host cells – NIH3T3 host cells, beta-gal luminescence, confirmation (AID 2044).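 Note: intracellular parasites grown in NIH/3T3 mouse fibroblasts as host cells; luminescent beta-galactosidase reporter signal from transgenic T. cruzi replicating inside host cells; inhibitors lower the luminescence signal.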 In kind it is functional, cell-based.
Assay [9] concerns the target Paired box protein Pax-8 (Homo sapiens, UniProt Q06710). In words: PAX8 transcriptional activity inhibition in RMG-I – RMG-I cells, luciferase, cherry-pick, dose response (AID 687027).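 Note: luciferase reporter driven by Pax8 target thyroperoxidase promoter measured by SteadyGlo luminescence.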 The class given is functional, cell-based.
Assay [10] can be described thus: DRD fibroblast viability loss – cell-based, non-viral oncogenic, luminescence, dose response (AID 1934). In kind it is functional. The settings on record: Homo sapiens.
Assay [11] addresses T2, Protein RecA (Mycobacterium tuberculosis, UniProt P9WHJ3).
T2 sequence (P9WHJ3 whole entry): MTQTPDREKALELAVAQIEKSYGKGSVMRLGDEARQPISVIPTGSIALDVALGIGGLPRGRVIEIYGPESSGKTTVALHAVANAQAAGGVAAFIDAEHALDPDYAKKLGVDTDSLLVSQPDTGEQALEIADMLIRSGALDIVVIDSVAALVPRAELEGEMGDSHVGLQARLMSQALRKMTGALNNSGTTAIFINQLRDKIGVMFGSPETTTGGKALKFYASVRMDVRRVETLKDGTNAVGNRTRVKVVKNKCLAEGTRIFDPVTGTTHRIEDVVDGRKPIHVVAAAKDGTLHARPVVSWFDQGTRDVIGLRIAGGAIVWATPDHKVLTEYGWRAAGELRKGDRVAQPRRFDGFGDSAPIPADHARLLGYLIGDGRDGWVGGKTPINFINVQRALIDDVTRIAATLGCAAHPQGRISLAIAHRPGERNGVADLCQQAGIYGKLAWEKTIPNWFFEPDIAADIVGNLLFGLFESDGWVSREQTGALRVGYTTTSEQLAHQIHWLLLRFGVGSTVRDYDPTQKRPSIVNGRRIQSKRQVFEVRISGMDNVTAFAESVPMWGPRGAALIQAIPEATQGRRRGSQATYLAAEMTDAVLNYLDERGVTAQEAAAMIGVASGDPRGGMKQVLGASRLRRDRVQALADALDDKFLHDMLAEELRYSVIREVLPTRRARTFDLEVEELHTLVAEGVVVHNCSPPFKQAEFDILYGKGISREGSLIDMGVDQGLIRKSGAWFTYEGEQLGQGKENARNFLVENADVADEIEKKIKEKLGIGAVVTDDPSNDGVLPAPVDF
The experiment in a line: Fluorescence Cell-Free Homogeneous Dose Retest to Identify Inhibitors of RecA-Intein Splicing Activity. [Related pubchem assays (depositor defined):AID2097, AID2223, AID489010, AID492950]. In kind it is functional.

Assay [12] relates to BJ. The experiment in a line: BJ-TERT fibroblast viability loss – cell-based, RAS-independent, luminescence, dose response (AID 1933). The class given is functional. The note with it: Homo sapiens.
The nature of assay [13]: OVCAR8 cell viability loss – plate reader, dry powder samples, PAX8 project, dose response (AID 743197). In kind it is functional, cell-based. The note with it: OVCAR-8.
Assay [14] is described as follows: OVCAR-3 cell viability loss – plate reader, dry powder samples, PAX8 inhibitor project, dose response (AID 743044). In kind it is functional, cell-based.

Sequence of Paired box protein Pax-8 (Q06710 whole entry): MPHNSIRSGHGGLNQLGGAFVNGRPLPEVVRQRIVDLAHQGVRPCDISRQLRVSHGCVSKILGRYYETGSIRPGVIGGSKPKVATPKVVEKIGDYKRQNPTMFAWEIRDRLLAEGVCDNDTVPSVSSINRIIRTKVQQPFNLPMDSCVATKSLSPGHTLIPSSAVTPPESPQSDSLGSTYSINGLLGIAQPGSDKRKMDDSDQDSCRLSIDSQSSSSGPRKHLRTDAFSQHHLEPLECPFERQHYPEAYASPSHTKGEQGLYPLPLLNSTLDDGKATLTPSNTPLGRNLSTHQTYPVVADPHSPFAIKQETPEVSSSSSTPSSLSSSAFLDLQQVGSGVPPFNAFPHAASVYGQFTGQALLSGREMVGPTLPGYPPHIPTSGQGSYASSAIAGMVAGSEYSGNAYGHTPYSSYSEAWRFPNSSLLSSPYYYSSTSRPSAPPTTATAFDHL

Usually IC50 stands for the concentration needed to halve the response being measured. For `COc1ccccc1Cn1c(=S)[nH]c2ccc(F)cc2c1=O`, the figures for the IC50 in assay [1] and in assay [2] were > 138 µM (inactive) and 0.412 µM (active), respectively.

For the compound `CC(C)(C)C(=O)NNC(=O)COc1ccc2ccccc2c1Br`, the IC50 in assay [1] was > 138 µM (inactive); in assay [2], 4.91 µM (active).

Broadly, the EC50 is the concentration giving half of the maximal effect. As a reminder, the AC50 is the concentration at which the activity in the assay is half-maximal. For the compound `CC(C)N(CC(=O)Nc1ccc(Cl)cc1C(F)(F)F)C(=O)CCl`, the EC50 was 16.9 µM (active) in [3]; > 150 µM (inconclusive) in assay [4]; 11.9 µM (active) in [6]; 3.38 µM (active) in assay [8]; 6.62 µM (active) in [10]; 6.09 µM (active) in [11]. For the same compound, the EC50 in assay [12] is 6.85 µM (inconclusive). Further, the half-maximal activity concentration (AC50) in assay [5] is 10 µM (active); in [7], < 0.018 µM (inconclusive); in [9] it was 5.06 µM (active).

Turning to `COc1ccc(CN(C)C[C@H]2OCCCC[C@@H](C)Oc3ccc(NC(=O)Nc4ccc(F)cc4)cc3C(=O)N([C@@H](C)CO)C[C@@H]2C)cc1`, the half-maximal activity concentration (AC50) in assay [5] was 51.9 µM (active); in assay [13], > 70 µM (inactive); in assay [14] it was 33.8 µM (active); in [9] it was 21.7 µM (active).
